From patent publication US20180318381A1, “Methods of Treatment of Rhabdomyolysis” (University of Pittsburgh - Of the Commonwealth System of …, priority 2015, published 2018)

How the values were obtained:
[1] = test system: amyotrophic lateral sclerosis mouse model; conditions: ALS mouse model; cited from earlier work
[2] = test system: mice treated with azide; conditions: supplementation at the same time as azide; cited from earlier work
[3] = test system: Friedrich's ataxia cells; conditions: in response to oxidative stress; cited from earlier work
[4] = test system: patients with LC-FAODs

In the case of CCNC(=O)[C@]12CCC(C)(C)C[C@H]1[C@H]1C(=O)C=C3[C@@]4(C)C=C(C#N)C(=O)C(C)(C)[C@@H]4CC[C@@]3(C)[C@]1(C)CC2 [CDDO-EA, 2-cyano-3,12-dioxooleana-1,9-dien-28-oic acid-ethyl amide], the survival [1] is given as “improve survival”.

For CC(=O)OC[C@H]1O[C@@H](n2ccc(=O)[nH]c2=O)[C@H](OC(C)=O)[C@@H]1OC(C)=O [PN401, uridine triacetate], the “survival of the animals” value [2] is listed as “improved survival”.

For CC1(C)CC[C@]2(NC(=O)C(C)(F)F)CC[C@]3(C)[C@H](C(=O)C=C4[C@@]5(C)C=C(C#N)C(=O)C(C)(C)[C@@H]5CC[C@]43C)[C@@H]2C1 [RTA408, N-(2-cyano-3,12-dioxo-28-noroleana-1,9(11)-dien-17-yl)-2,2-difluoro-propanamide], the antioxidant gene expression [3] is given as “improve antioxidant gene expression”.

In the case of CCCCCCC(=O)OCC(COC(=O)CCCCCC)OC(=O)CCCCCC [triheptanoin, 1,3-di(heptanoyloxy)propan-2-yl heptanoate], the “decrease in peak CK levels (trend)” value ([4]; 7 subjects with peak CK before and after treatment, P=0.1279) is reported as 68%, the “decline in hypoglycemia event rate per year” value ([4]; 9 subjects with hypoglycemia problems, P=0.0091) is reported as 96% and the hospitalizations ([4]; LC-FAOD patients, FIG. 14) is reported as “reduced hospitalizations”. The hypoglycemic hospitalizations ([4]; LC-FAOD patients, FIG. 14) was “nearly eliminated”, the “number of days of hospital stay if hospitalized” value ([4]; LC-FAOD patients, FIG. 14) was “reduced” and the “number of hospitalization days with rhabdomyolysis” value ([4]; LC-FAOD patients, FIG. 14) was “decreased”. The “number of hospitalizations with rhabdomyolysis” value ([4]; LC-FAOD patients, FIG. 14) was “did not reduce”, the “peak CK levels” value ([4]; after treatment (from 85,855 before), 7 subjects) was 27,597 units and the “hypoglycemia event rate per year” value ([4]; after treatment (vs 0.92 before), n=9) was 0.04 per year. It also gave a hypoglycemia-related hospitalization days/year ([4]; after treatment (vs 8.42 before), n=9, P=0.0257) of 0.18 days/year, a hospitalization event rate ([4]; after triheptanoin initiation (vs 1.94 before), n=16) of 1.26 and a rhabdomyolysis hospitalization days/year ([4]; after triheptanoin initiation (vs 5.94 before), n=9, P=0.1224) of 2.36 days/year. The mean hospitalization days/year ([4]; after triheptanoin initiation (vs 17.55 before), n=15) was 5.76 days/year, the hypoglycemia in patients ([4]; patients having long chain FAODs) was “essentially eliminates hypoglycemia” and the episodes of rhabdomyolysis ([4]; patients having long chain FAODs on triheptanoin) was “continue to have episodes of rhabdomyolysis”. The “decrease in mean hospitalization days/year” value ([4]; period after triheptanoin initiation vs before, n=15, P=0.0242) was 67%.
